These results are taken from ChEMBL document CHEMBL1149973, “Inhibitory stereochemistry of N-chloroacetyl-N-hydroxyleucine methyl ester for thermolysin” (Bioorg Med Chem Lett, 1996).

Each structure is given as a SMILES string. pKi: −log10 of the molar value.

The target in assay [1] is T1, Thermolysin (Bacillus thermoproteolyticus) (UniProt P00800).
T1 sequence (whole entry): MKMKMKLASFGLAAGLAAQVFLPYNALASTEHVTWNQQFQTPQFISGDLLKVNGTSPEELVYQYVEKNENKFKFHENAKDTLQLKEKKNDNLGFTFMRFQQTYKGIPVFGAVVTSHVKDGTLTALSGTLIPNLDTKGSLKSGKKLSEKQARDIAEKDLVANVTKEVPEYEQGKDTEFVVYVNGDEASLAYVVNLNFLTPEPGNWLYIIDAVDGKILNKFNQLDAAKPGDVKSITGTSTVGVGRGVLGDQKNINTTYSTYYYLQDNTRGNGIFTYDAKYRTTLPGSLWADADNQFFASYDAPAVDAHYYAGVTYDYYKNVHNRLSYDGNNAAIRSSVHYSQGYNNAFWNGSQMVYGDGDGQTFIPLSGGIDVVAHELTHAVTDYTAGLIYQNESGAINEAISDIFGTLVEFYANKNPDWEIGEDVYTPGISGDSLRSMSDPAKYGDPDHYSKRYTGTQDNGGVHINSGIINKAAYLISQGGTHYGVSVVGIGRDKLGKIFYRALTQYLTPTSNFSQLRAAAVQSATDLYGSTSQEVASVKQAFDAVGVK
Description: Inhibitory activity against thermolysin expressed as kinact.

The target in a further assay is T2, Thermolysin (Bacillus thermoproteolyticus, UniProt P00800).
T2 sequence (P00800 whole entry): T1 sequence (whole entry)
Description: Inhibitory activity against thermolysin expressed as Ki.

As usually defined, the pKi is the Ki on a negative log10 scale, so that one unit is a factor of ten. A low value points to a large Ki. Molecule `COC(=O)C(CC(C)C)N(O)C(=O)CCl` (centres undefined) returned a K inact in assay [1] of 0.0075 s⁻¹. For the same molecule, on Thermolysin, the pKi was 2.12.
In turn, `COC(=O)[C@H](CC(C)C)N(O)C(=O)CCl` yielded a K inact in assay [1] of 0.009 s⁻¹. This molecule also gave a pKi at Thermolysin of 2.35.
